Data published in PubChem BioAssay (NCI).
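Test compounds were applied to cells in 96-well plates for 48 hours at 5 doses. Definition used: TGI = concentration required for complete inhibition of growth.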

Key:
Assay in all cases: NCI anticancer screen, dose series, 48 h
SR leukemia = system: SR leukemia
HCT-116 colon = system: HCT-116 colon
SK-MEL-2 melanoma = system: SK-MEL-2 melanoma
LXFL 529 NSCLC = system: LXFL 529 NSCLC
K-562 leukemia = system: K-562 leukemia
HT29 colon = system: HT29 colon
UACC-62 melanoma = system: UACC-62 melanoma
OVCAR-8 ovarian = system: OVCAR-8 ovarian
SF-295 CNS = system: SF-295 CNS
OVCAR-3 ovarian = system: OVCAR-3 ovarian
NCI-H226 lung = system: NCI-H226 lung
EKVX NSCLC = system: EKVX NSCLC
HL-60(TB) leukemia = system: HL-60(TB) leukemia
KM12 colon = system: KM12 colon
DMS 273 small cell lung = system: DMS 273 small cell lung
NCI-H23 lung = system: NCI-H23 lung
M19-MEL melanoma = system: M19-MEL melanoma
ACHN renal = system: ACHN renal
SK-OV-3 ovarian = system: SK-OV-3 ovarian
SN12C renal = system: SN12C renal
HOP-18 NSCLC = system: HOP-18 NSCLC
RXF 393 renal = system: RXF 393 renal
SF-539 CNS = system: SF-539 CNS
HOP-62 NSCLC = system: HOP-62 NSCLC
MALME-3M melanoma = system: MALME-3M melanoma
NCI-H522 lung = system: NCI-H522 lung
DMS 114 small cell lung = system: DMS 114 small cell lung
KM20L2 colon = system: KM20L2 colon
DLD-1 colon = system: DLD-1 colon
SNB-19 CNS = system: SNB-19 CNS
HOP-92 NSCLC = system: HOP-92 NSCLC
LOX IMVI melanoma = system: LOX IMVI melanoma
OVCAR-5 ovarian = system: OVCAR-5 ovarian
TK-10 renal = system: TK-10 renal
CAKI-1 renal = system: CAKI-1 renal
A498 renal = system: A498 renal
HCT-15 colon = system: HCT-15 colon
HCC-2998 colon = system: HCC-2998 colon
UO-31 renal = system: UO-31 renal
A549 NSCLC = system: A549 NSCLC
SK-MEL-5 melanoma = system: SK-MEL-5 melanoma
786-0 renal = system: 786-0 renal
CCRF-CEM leukemia = system: CCRF-CEM leukemia
SW-620 colon = system: SW-620 colon
IGROV1 ovarian = system: IGROV1 ovarian
OVCAR-4 ovarian = system: OVCAR-4 ovarian
M14 melanoma = system: M14 melanoma
SNB-75 CNS = system: SNB-75 CNS
NCI-H460 lung = system: NCI-H460 lung
U251 CNS = system: U251 CNS
SK-MEL-28 melanoma = system: SK-MEL-28 melanoma
SF-268 CNS = system: SF-268 CNS
UACC-257 melanoma = system: UACC-257 melanoma
MOLT-4 leukemia = system: MOLT-4 leukemia
RPMI-8226 leukemia = system: RPMI-8226 leukemia

Work on Cc1ccc(-c2cc(=O)c3cc4c(cc3[nH]2)OCO4)cc1 yielded a TGI (SR leukemia) of over 40.4 µM, a TGI (HCT-116 colon) of over 100 µM and a TGI (SK-MEL-2 melanoma) of 14.2 µM. For the same compound, the TGI (LXFL 529 NSCLC) was 21.8 µM, the TGI (K-562 leukemia) was over 100 µM and the TGI (HT29 colon) was over 100 µM. It also gave a TGI (UACC-62 melanoma) of over 39.1 µM, a TGI (OVCAR-8 ovarian) of over 100 µM and a TGI (SF-295 CNS) of 11.6 µM. It also gave a TGI (OVCAR-3 ovarian) of over 100 µM, a TGI (NCI-H226 lung) of 8.66 µM and a TGI (EKVX NSCLC) of over 100 µM. The TGI (HL-60(TB) leukemia) was 2.77 µM, the TGI (KM12 colon) was over 100 µM and the TGI (DMS 273 small cell lung) was over 25 µM. For the same compound, the TGI (NCI-H23 lung) was 3.29 µM, the TGI (M19-MEL melanoma) was over 100 µM and the TGI (ACHN renal) was over 100 µM. It also gave a TGI (SK-OV-3 ovarian) of 28.9 µM, a TGI (SN12C renal) of over 100 µM and a TGI (HOP-18 NSCLC) of 35.2 µM. The TGI (RXF 393 renal) was 9.94 µM, the TGI (SF-539 CNS) was 4.54 µM and the TGI (HOP-62 NSCLC) was 20.5 µM. It also gave a TGI (MALME-3M melanoma) of over 33.4 µM, a TGI (NCI-H522 lung) of 4.83 µM and a TGI (DMS 114 small cell lung) of over 100 µM. For the same compound, the TGI (KM20L2 colon) was 3.43 µM, the TGI (DLD-1 colon) was over 100 µM and the TGI (SNB-19 CNS) was over 100 µM. The TGI (HOP-92 NSCLC) was 71.2 µM, the TGI (LOX IMVI melanoma) was over 100 µM and the TGI (OVCAR-5 ovarian) was over 82.3 µM. It also gave a TGI (TK-10 renal) of over 60.6 µM, a TGI (CAKI-1 renal) of over 100 µM and a TGI (A498 renal) of 10.5 µM. For the same compound, the TGI (HCT-15 colon) was 6.64 µM, the TGI (HCC-2998 colon) was 5.56 µM and the TGI (UO-31 renal) was over 100 µM. The TGI (A549 NSCLC) was over 63.4 µM, the TGI (SK-MEL-5 melanoma) was 5.6 µM and the TGI (786-0 renal) was 14.6 µM. For the same compound, the TGI (CCRF-CEM leukemia) was over 100 µM, the TGI (SW-620 colon) was over 100 µM and the TGI (IGROV1 ovarian) was over 100 µM. It also gave a TGI (OVCAR-4 ovarian) of over 100 µM, a TGI (M14 melanoma) of over 22 µM and a TGI (SNB-75 CNS) of 35 µM. It also gave a TGI (NCI-H460 lung) of 3.82 µM, a TGI (U251 CNS) of 10.5 µM and a TGI (SK-MEL-28 melanoma) of over 100 µM. The TGI (SF-268 CNS) was over 72.1 µM, the TGI (UACC-257 melanoma) was over 100 µM and the TGI (MOLT-4 leukemia) was over 42.6 µM. For the same compound, the TGI (RPMI-8226 leukemia) was over 100 µM.
